Key:
[1] = Free and bound catechins: binding to lecithin (centrifugation, HPLC); conditions: for binding to the lecithin (in words): green tea samples with lecithin 0.05, 0.1, 0.15%
Experimental: Phosphate buffer was added to each sample to give a final concentration of 20 mM at pH 6.0 before they were pre-homogenized with an Ultraturrax at full speed. The dispersions were flushed with nitrogen for 5 minutes and then green tea extract was added for a final concentration of 0.2%. After gentle stirring for 15 min the mixes were finally homogenized with a Microfluidizer processor (Microfluidics, Newton, Mass., USA) with 1 run at 250 bar. […] The homogenized dispersions were filled into 1 lt glass bottles and were sterilized (30 sec at 80° C.) in a water bath heated with steam. Green tea catechins were analysed in the fresh and stored samples by HPLC on a C-18 column, using UV detection at 280 nm. For total catechin determination samples were treated with concentrated acetic acid and the extracts were stabilised with ascorbic acid, EDTA and acetonitrile. For free catechin determination each sample was previously spun at 14,000×g for 30 min using an Eppendorf (Dr Vaudaux A G, Binningen, C H) centrifuge 5415. The resulting supernatant was then treated as previously described. Stability and binding to phospholipids were calculated for (-)-epigallocatechin (Egc), (-)-epigallocatechin-3-gallate (Egcg), and caffeine.

[2] = Stability of green tea catechins during storage at room temperature (HPLC); format: physicochemical; conditions: for catechins (% recovered): room temperature, pH 6.0
Experimental: Soya lecithin was dispersed in distilled water to yield different concentrations (0.05%; 0.1% and 0.2%) by stirring the mixes at 37° C. for 2 h. Phosphate buffer was added to each sample to give a final concentration of 20 mM at pH 6.0 before they were pre-homogenized with an Ultraturrax at full speed. The dispersions were flushed with nitrogen for 5 minutes and then green tea extract was added for a final concentration of 0.2%. After gentle stirring for 15 min the mixes were finally homogenized with a Microfluidizer processor (Microfluidics, Newton, Mass., USA) with 1 run at 250 bar. The same protocol was followed for preparing the green tea control except that no lecithin was added. The homogenized dispersions were filled into 1 lt glass bottles and were sterilized (30 sec at 80° C.) in a water bath heated with steam.
The sterilized samples were stored at room temperature up to 25 days. No microbiological contamination with mesophilic germs or Enterobacteriaceae was detected throughout the storage test.
Green tea catechins were analysed in the fresh and stored samples by HPLC on a C-18 column, using UV detection at 280 nm. For total catechin determination samples were treated with concentrated acetic acid and the extracts were stabilised with ascorbic acid, EDTA and acetonitrile. For free catechin determination each sample was previously spun at 14,000×g for 30 min using an Eppendorf (Dr Vaudaux A G, Binningen, C H) centrifuge 5415. The resulting supernatant was then treated as previously described. Stability and binding to phospholipids were calculated for (−)-epigallocatechin (Egc), (−)-epigallocatechin-3-gallate (Egcg), and caffeine.

[3] = green tea 0.2% + lecithin 0.05%, storage 0 d
[4] = green tea 0.2% + lecithin 0.05%, storage 2 d
[5] = green tea 0.2% + lecithin 0.05%, storage 9 d
[6] = green tea 0.2% + lecithin 0.05%, storage 13 d
[7] = green tea 0.2% + lecithin 0.05%, storage 22 d
[8] = green tea 0.2% + lecithin 0.1%, storage 0 d
[9] = green tea 0.2% + lecithin 0.1%, storage 2 d
[10] = green tea 0.2% + lecithin 0.1%, storage 9 d
[11] = green tea 0.2% + lecithin 0.1%, storage 13 d
[12] = green tea 0.2% + lecithin 0.1%, storage 22 d
[13] = green tea 0.2% + lecithin 0.2%, storage 0 d
[14] = green tea 0.2% + lecithin 0.2%, storage 2 d
[15] = green tea 0.2% + lecithin 0.2%, storage 9 d
[16] = green tea 0.2% + lecithin 0.2%, storage 13 d
[17] = green tea 0.2% + lecithin 0.2%, storage 22 d

SMILES: O=C(O[C@@H]1Cc2c(O)cc(O)cc2O[C@@H]1c1ccc(O)c(O)c1)c1cc(O)c(O)c(O)c1 [Ecg, epicatechin gallate]
- binding to the lecithin (in words) [1]: interact with the added lecithin

SMILES: Oc1cc(O)c2c(c1)O[C@H](c1cc(O)c(O)c(O)c1)[C@H](O)C2 [Egc, (−)-epigallocatechin]
- catechins (% recovered) [2, 3]: 100%
- catechins (% recovered) [2, 4]: 92%
- catechins (% recovered) [2, 5]: 72%
- catechins (% recovered) [2, 6]: 59%
- catechins (% recovered) [2, 7]: 42%
- catechins (% recovered) [2, 8]: 100%
- catechins (% recovered) [2, 9]: 94%
- catechins (% recovered) [2, 10]: 70%
- catechins (% recovered) [2, 11]: 57%
- catechins (% recovered) [2, 12]: 39%
- catechins (% recovered) [2, 13]: 100%
- catechins (% recovered) [2, 14]: 91%
- catechins (% recovered) [2, 15]: 64%
- catechins (% recovered) [2, 16]: 49%
- catechins (% recovered) [2, 17]: 30%
- catechins (% recovered) ([2]; green tea 0.2%, storage 0 d): 100%
- catechins (% recovered) ([2]; green tea 0.2%, storage 2 d): 93%
- catechins (% recovered) ([2]; green tea 0.2%, storage 9 d): 65%
- catechins (% recovered) ([2]; green tea 0.2%, storage 13 d): 50%
- catechins (% recovered) ([2]; green tea 0.2%, storage 22 d): 28%
- bound catechins (% recovered in pellet) [1, 3]: 1%
- bound catechins (% recovered in pellet) [1, 4]: 3%
- bound catechins (% recovered in pellet) [1, 5]: 1%
- bound catechins (% recovered in pellet) [1, 6]: 1%
- bound catechins (% recovered in pellet) [1, 7]: 0%
- bound catechins (% recovered in pellet) [1, 8]: 2%
- bound catechins (% recovered in pellet) [1, 9]: 4%
- bound catechins (% recovered in pellet) [1, 10]: 2%
- bound catechins (% recovered in pellet) [1, 11]: 2%
- bound catechins (% recovered in pellet) [1, 12]: 2%
- bound catechins (% recovered in pellet) [1, 13]: 5%
- bound catechins (% recovered in pellet) [1, 14]: 6%
- bound catechins (% recovered in pellet) [1, 15]: 5%
- bound catechins (% recovered in pellet) [1, 16]: 5%
- bound catechins (% recovered in pellet) [1, 17]: 6%
- bound catechins (% recovered in pellet) ([1]; green tea 0.2%, storage 0 d): 3%
- bound catechins (% recovered in pellet) ([1]; green tea 0.2%, storage 2 d): 0%
- bound catechins (% recovered in pellet) ([1]; green tea 0.2%, storage 9 d): 0%
- bound catechins (% recovered in pellet) ([1]; green tea 0.2%, storage 13 d): 0%
- bound catechins (% recovered in pellet) ([1]; green tea 0.2%, storage 22 d): 0%

SMILES: O=C(O[C@@H]1Cc2c(O)cc(O)cc2O[C@@H]1c1cc(O)c(O)c(O)c1)c1cc(O)c(O)c(O)c1 [Egcg, (−)-epigallocatechin-3-gallate]
- catechins (% recovered) [2, 3]: 100%
- catechins (% recovered) [2, 4]: 95%
- catechins (% recovered) [2, 5]: 78%
- catechins (% recovered) [2, 6]: 68%
- catechins (% recovered) [2, 7]: 55%
- catechins (% recovered) [2, 8]: 100%
- catechins (% recovered) [2, 9]: 98%
- catechins (% recovered) [2, 10]: 82%
- catechins (% recovered) [2, 11]: 74%
- catechins (% recovered) [2, 12]: 62%
- catechins (% recovered) [2, 13]: 100%
- catechins (% recovered) [2, 14]: 99%
- catechins (% recovered) [2, 15]: 88%
- catechins (% recovered) [2, 16]: 82%
- catechins (% recovered) [2, 17]: 71%
- catechins (% recovered) ([2]; green tea 0.2%, storage 0 d): 100%
- catechins (% recovered) ([2]; green tea 0.2%, storage 2 d): 94%
- catechins (% recovered) ([2]; green tea 0.2%, storage 9 d): 67%
- catechins (% recovered) ([2]; green tea 0.2%, storage 13 d): 53%
- catechins (% recovered) ([2]; green tea 0.2%, storage 22 d): 33%
- stabilisation by lecithin during storage (in words) ([2]; storage of the green tea samples): dose-dependent stabilisation
- bound catechins (% recovered in pellet) [1, 3]: 18%
- bound catechins (% recovered in pellet) [1, 4]: 17%
- bound catechins (% recovered in pellet) [1, 5]: 21%
- bound catechins (% recovered in pellet) [1, 6]: 22%
- bound catechins (% recovered in pellet) [1, 7]: 22%
- bound catechins (% recovered in pellet) [1, 8]: 33%
- bound catechins (% recovered in pellet) [1, 9]: 30%
- bound catechins (% recovered in pellet) [1, 10]: 37%
- bound catechins (% recovered in pellet) [1, 11]: 38%
- bound catechins (% recovered in pellet) [1, 12]: 39%
- bound catechins (% recovered in pellet) [1, 13]: 46%
- bound catechins (% recovered in pellet) [1, 14]: 45%
- bound catechins (% recovered in pellet) [1, 15]: 53%
- bound catechins (% recovered in pellet) [1, 16]: 55%
- bound catechins (% recovered in pellet) [1, 17]: 59%
- bound catechins (% recovered in pellet) ([1]; green tea 0.2%, storage 0 d): 1%
- bound catechins (% recovered in pellet) ([1]; green tea 0.2%, storage 2 d): 1%
- bound catechins (% recovered in pellet) ([1]; green tea 0.2%, storage 9 d): 1%
- bound catechins (% recovered in pellet) ([1]; green tea 0.2%, storage 13 d): 2%
- bound catechins (% recovered in pellet) ([1]; green tea 0.2%, storage 22 d): 2%
- binding to the lecithin (in words) [1]: interact with the added lecithin
- percentage of bound Egcg during storage (in words) ([1]; lecithin containing green tea samples during storage): not only remained constant but rather slightly increased with time

SMILES: Cn1c(=O)c2c(ncn2C)n(C)c1=O [caffeine]
- stability during storage (in words) [2]: quite stable under the chosen storage conditions

Reference: patent US9265276B2, “Reducing astringency in compositions containing phenolic compounds” (Nestec S.A., priority 2008, dated 2016)
